Data as given in PMC9896599, “Biogenesis of flavor-related linalool is diverged and genetically conserved in tree peony (Paeonia × suffruticosa)” (Horticulture Research, 2022).

How the values were obtained:
Assay type in all cases: biochemical
Conditions in all cases: 10 uM GPP, 30 mM KCl, 5 mM MgCl2, 1 mM MnCl2, 50 mM HEPES pH 7.5, 30 °C, 1 h
[1] = biological target: T1, PdTPS4 (Paeonia delavayi, UniProt A0A9E8GE34); assay: GC-MS of headspace product (linalool)
T1 construct: full-length cDNA, C-terminal His6, E. coli Transetta (DE3), Ni-NTA purified; the five PdTPS are 553-600 residues, about 65 kDa; plastid-localized

[2] = biological target: T2, PdTPS3 (Paeonia delavayi, UniProt A0A9E8G7R5); assay: GC-MS of headspace product (geraniol)
T2 construct: full-length cDNA, C-terminal His6, E. coli Transetta (DE3), Ni-NTA purified; the five PdTPS are 553-600 residues, about 65 kDa; plastid-localized

[3] = biological target: T3, PdTPS1 (Paeonia delavayi, UniProt A0A9E8GEC8); assay: GC-MS of headspace product (linalool)
T3 construct: full-length cDNA, C-terminal His6, E. coli Transetta (DE3), Ni-NTA purified; the five PdTPS are 553-600 residues, about 65 kDa; plastid-localized
T3 sequence (A0A9E8GEC8 entry or part of it): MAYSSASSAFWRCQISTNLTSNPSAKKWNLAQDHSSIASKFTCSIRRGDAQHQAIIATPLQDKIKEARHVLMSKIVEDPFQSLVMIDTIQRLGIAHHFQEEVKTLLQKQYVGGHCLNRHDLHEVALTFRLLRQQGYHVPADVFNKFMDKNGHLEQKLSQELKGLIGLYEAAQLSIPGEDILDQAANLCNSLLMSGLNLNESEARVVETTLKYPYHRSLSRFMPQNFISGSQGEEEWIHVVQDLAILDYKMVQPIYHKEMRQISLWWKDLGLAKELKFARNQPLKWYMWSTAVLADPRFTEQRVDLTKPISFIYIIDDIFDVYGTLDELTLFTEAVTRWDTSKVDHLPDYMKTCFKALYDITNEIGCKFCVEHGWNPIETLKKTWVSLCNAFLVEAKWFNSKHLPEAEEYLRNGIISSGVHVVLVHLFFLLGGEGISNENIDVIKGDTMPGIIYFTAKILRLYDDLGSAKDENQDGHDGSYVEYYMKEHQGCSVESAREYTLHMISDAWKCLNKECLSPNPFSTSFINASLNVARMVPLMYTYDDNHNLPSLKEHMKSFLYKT

T1 sequence (A0A9E8GE34 entry or part of it): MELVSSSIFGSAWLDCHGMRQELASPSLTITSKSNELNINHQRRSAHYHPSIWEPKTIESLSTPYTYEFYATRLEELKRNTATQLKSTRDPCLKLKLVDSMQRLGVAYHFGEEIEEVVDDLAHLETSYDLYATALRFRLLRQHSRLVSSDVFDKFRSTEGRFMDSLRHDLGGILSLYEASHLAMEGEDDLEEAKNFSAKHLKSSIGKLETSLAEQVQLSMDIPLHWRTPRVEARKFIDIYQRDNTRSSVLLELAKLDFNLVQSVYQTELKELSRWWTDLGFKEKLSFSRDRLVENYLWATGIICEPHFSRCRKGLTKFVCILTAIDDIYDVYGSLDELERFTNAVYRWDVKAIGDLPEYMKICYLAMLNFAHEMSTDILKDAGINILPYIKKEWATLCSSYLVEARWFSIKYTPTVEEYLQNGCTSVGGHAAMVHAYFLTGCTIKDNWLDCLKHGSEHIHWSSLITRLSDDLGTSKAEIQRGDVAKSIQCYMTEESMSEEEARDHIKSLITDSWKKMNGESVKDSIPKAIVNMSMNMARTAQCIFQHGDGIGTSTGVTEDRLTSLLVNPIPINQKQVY
T2 sequence (A0A9E8G7R5 entry or part of it): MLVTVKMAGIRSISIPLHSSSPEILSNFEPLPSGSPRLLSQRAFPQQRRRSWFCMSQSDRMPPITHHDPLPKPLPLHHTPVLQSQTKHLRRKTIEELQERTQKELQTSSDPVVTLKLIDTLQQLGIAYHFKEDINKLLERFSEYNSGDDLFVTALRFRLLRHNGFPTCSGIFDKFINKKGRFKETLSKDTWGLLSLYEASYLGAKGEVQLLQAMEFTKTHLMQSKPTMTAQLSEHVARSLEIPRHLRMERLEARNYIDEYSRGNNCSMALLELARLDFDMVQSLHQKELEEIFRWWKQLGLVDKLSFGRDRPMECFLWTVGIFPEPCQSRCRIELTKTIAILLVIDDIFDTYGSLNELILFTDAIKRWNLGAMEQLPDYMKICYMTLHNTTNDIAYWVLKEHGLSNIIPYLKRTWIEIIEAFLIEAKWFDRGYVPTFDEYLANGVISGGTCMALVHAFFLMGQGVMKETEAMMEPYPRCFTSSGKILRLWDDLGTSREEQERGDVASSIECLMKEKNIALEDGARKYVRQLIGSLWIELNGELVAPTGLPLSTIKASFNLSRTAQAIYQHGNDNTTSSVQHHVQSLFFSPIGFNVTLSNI

Structure (SMILES): CC(C)=CCC/C(C)=C/COP(=O)(O)OP(=O)(O)O [GPP]
- GC-MS of headspace product (linalool) [1]: both PdTPS1 and PdTPS4 catalyzed the formation of acyclic terpene alcohols with linalool
- GC-MS of headspace product (geraniol) [2]: The reaction products catalyzed by PdTPS3 with GPP formed geraniol rather than linalool
- GC-MS of headspace product (linalool) [3]: both PdTPS1 and PdTPS4 catalyzed the formation of acyclic terpene alcohols with linalool
